Legend:
[1] = test system: small flower umbrella sedge; test: Test B flooded paddy test; type: in vivo, Cyperus difformis; conditions: 1000 g ai/ha, scale 0 to 100 (0 no effect, 100 complete control)
Summary of the method: (§1)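 Paddy species grown to the 2-leaf stage under flooding; blackgrass sprayed postemergence at 2–18 cm (1- to 4-leaf stage). Plants kept in a greenhouse for 13 to 15 days, then visually rated against controls on 0 (no effect) to 100 (complete control).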

[2] = test system: barnyardgrass; test: Test A pre-/postemergence herbicide test; type: in vivo, Echinochloa crus-galli
Summary of the method: (§2)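 Sandy loam soil given preemergence directed spray; plants at 2 to 10 cm, one- to two-leaf stage, sprayed to runoff postemergence, compounds in non-phytotoxic solvent with surfactant. Injury rated visually versus untreated controls after about ten greenhouse days, 0 (no effect) to 100 (complete control); dash means not tested.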

[3] = test system: large crabgrass; test: Test A pre-/postemergence herbicide test; type: in vivo, Digitaria sanguinalis
Summary of the method: as §2

[4] = test system: rice; test: Test C flooded paddy test; type: in vivo, Oryza sativa; conditions: for Plant response rating, Rice: visual rating after 12 to 14 days
Summary of the method: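 Postemergence sprays applied to plants 2 to 18 cm tall (1- to 4-leaf stage); paddy species grown to 2-leaf stage under flooding. After 12 to 14 days in greenhouse, visual rating versus untreated controls on 0–100 scale (0 no effect, 100 complete control).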

[5] = test system: blackgrass; test: Test B postemergence herbicide test; type: in vivo, Alopecurus myosuroides; conditions: for Plant response rating, Blackgrass: visual rating after 13 to 15 days
Summary of the method: as §1

[6] = test system: redroot pigweed; test: Test A pre-/postemergence herbicide test; type: in vivo, Amaranthus retroflexus
Summary of the method: as §2

[7] = Postemergence, 500 g ai/ha, 0 to 100 scale, 0 no effect, 100 complete control
[8] = Postemergence, 2000 g ai/ha, 0 to 100 scale, 0 no effect, 100 complete control
[9] = Preemergence, 2000 g ai/ha, visual rating, 0 to 100 scale (0 no effect, 100 complete control)
[10] = preemergence, 500 g ai/ha, visual injury, 0 to 100 scale (0 no effect, 100 complete control)
[11] = 125 g ai/ha, scale 0 to 100 (0 no effect, 100 complete control)
[12] = 250 g ai/ha, scale of 0 to 100, 0 is no effect, 100 is complete control
[13] = 500 g ai/ha, scale 0 to 100 (0 no effect, 100 complete control)
[14] = 125 g ai/ha, visual rating, scale 0 (no effect) to 100 (complete control), postemergence
[15] = postemergence, 500 g ai/ha, scale 0 to 100, 0 is no effect, 100 is complete control
[16] = Postemergence, 125 g ai/ha, 0 to 100 scale, 0 no effect, 100 complete control
[17] = Preemergence, 500 g ai/ha, visual rating, 0 to 100 scale (0 no effect, 100 complete control)
[18] = preemergence, 125 g ai/ha, visual injury, 0 to 100 scale (0 no effect, 100 complete control)
[19] = 62 g ai/ha, scale 0 to 100 (0 no effect, 100 complete control)
[20] = 125 g ai/ha, scale of 0 to 100, 0 is no effect, 100 is complete control
[21] = Postemergence, 500 g ai/ha, scale 0 (no effect) to 100 (complete control)
[22] = postemergence, 125 g ai/ha, visual rating, scale 0 (no effect) to 100 (complete control)
[23] = Preemergence, 2000 g ai/ha, 0 to 100 scale, 0 no effect, 100 complete control
[24] = postemergence, 500 g ai/ha, visual rating, scale 0 (no effect) to 100 (complete control)

## C#CCNC(=O)c1cccc(NC(=O)c2sc(C(C)(C)C)nc2CC)c1 [Compound 319]
[1]
  Sedge, Umbrella plant response rating: 80
[2]; [7]
  Barnyardgrass plant response rating: 10
[2]; [8]
  Plant response rating, Barnyardgrass: 60
[2]; [9]
  Barnyardgrass plant response rating: 80
[2]; [10]
  Barnyardgrass plant response rating: 55
[3]; [7]
  Crabgrass, Large plant response rating: 10
[3]; [8]
  Plant response rating, Crabgrass, Large: 50
[3]; [9]
  Crabgrass, Large plant response rating: 100
[3]; [10]
  Crabgrass, Large plant response rating: 85
[4]; 62 g ai/ha, scale 0 to 100
  Rice plant response rating: 0
[4]; [11]
  Rice plant response rating: 35
[4]; [12]
  Rice plant response rating: 35
[4]; [13]
  Plant response rating, Rice: 70
[5]; [14]
  Blackgrass plant response rating: 0
[5]; [15]
  Blackgrass plant response rating: 0
[6]; [7]
  Pigweed plant response rating: 40
[6]; [8]
  Plant response rating, Pigweed: 40
[6]; [9]
  Pigweed plant response rating: 100
[6]; [10]
  Pigweed plant response rating: 100

## CCn1nc(C(C)(C)C)cc1C(=O)Nc1cccc(C(=O)NC(C)C)c1 [Compound 51]
[1]; visual rating, 13 to 15 days
  Sedge, Umbrella plant response rating: 80
[2]; [16]
  Barnyardgrass plant response rating: 50
[2]; [7]
  Plant response rating, Barnyardgrass: 75
[2]; [17]
  Barnyardgrass plant response rating: 85
[2]; [18]
  Barnyardgrass plant response rating: 60
[3]; [16]
  Crabgrass, Large plant response rating: 30
[3]; [7]
  Plant response rating, Crabgrass, Large: 30
[3]; [17]
  Crabgrass, Large plant response rating: 80
[3]; [18]
  Crabgrass, Large plant response rating: 80
[4]; [19]
  Rice plant response rating: 0
[4]; [20]
  Rice plant response rating: 0
[4]; [12]
  Rice plant response rating: 15
[4]; [13]
  Plant response rating, Rice: 50
[5]; [21]
  Plant response rating, Blackgrass: 0
[5]; [22]
  Blackgrass plant response rating: 0
[6]; [16]
  Pigweed plant response rating: 50
[6]; [7]
  Plant response rating, Pigweed: 85
[6]; [17]
  Pigweed plant response rating: 100
[6]; [18]
  Pigweed plant response rating: 100

## CCn1nc(C(C)(C)C)cc1C(=O)Nc1cccc(C(=O)NCCF)c1 [Compound 45]
[1]; visual rating, 13 to 15 days
  Sedge, Umbrella plant response rating: 70
[2]; [7]
  Plant response rating, Barnyardgrass: 100
[2]; [8]
  Plant response rating, Barnyardgrass: 100
[2]; [17]
  Barnyardgrass plant response rating: 80
[2]; [23]
  Barnyardgrass plant response rating: 95
[3]; [7]
  Plant response rating, Crabgrass, Large: 80
[3]; [8]
  Plant response rating, Crabgrass, Large: 90
[3]; [17]
  Crabgrass, Large plant response rating: 55
[3]; [23]
  Crabgrass, Large plant response rating: 75
[4]; [19]
  Rice plant response rating: 30
[4]; [20]
  Rice plant response rating: 30
[4]; 250 g ai/ha, scale 0 to 100 (0 no effect, 100 complete control)
  Plant response rating, Rice: 35
[4]; [13]
  Plant response rating, Rice: 65
[5]; Postemergence, 125 g ai/ha, scale 0 (no effect) to 100 (complete control)
  Blackgrass plant response rating: 10
[5]; [21]
  Plant response rating, Blackgrass: 20
[6]; [7]
  Plant response rating, Pigweed: 100
[6]; [8]
  Plant response rating, Pigweed: 100
[6]; [17]
  Pigweed plant response rating: 95
[6]; [23]
  Pigweed plant response rating: 100

## CCn1nc(C(C)(C)C)cc1C(=O)Nc1cncc(C(=O)N2CC=CC2)n1 [Compound 290]
[1]
  Sedge, Umbrella plant response rating: 70
[2]; [7]
  Barnyardgrass plant response rating: 55
[2]; [8]
  Plant response rating, Barnyardgrass: 70
[2]; [9]
  Barnyardgrass plant response rating: 90
[2]; [10]
  Barnyardgrass plant response rating: 40
[3]; [7]
  Crabgrass, Large plant response rating: 10
[3]; [8]
  Plant response rating, Crabgrass, Large: 10
[3]; [9]
  Crabgrass, Large plant response rating: 25
[3]; [10]
  Crabgrass, Large plant response rating: 5
[4]; 62 g ai/ha, scale 0 to 100
  Rice plant response rating: 0
[4]; [11]
  Rice plant response rating: 0
[4]; [12]
  Rice plant response rating: 15
[4]; [13]
  Plant response rating, Rice: 45
[5]; [14]
  Blackgrass plant response rating: 20
[5]; [15]
  Blackgrass plant response rating: 30
[6]; [7]
  Pigweed plant response rating: 30
[6]; [8]
  Plant response rating, Pigweed: 60
[6]; [9]
  Pigweed plant response rating: 95
[6]; [10]
  Pigweed plant response rating: 10

## CCc1nc(C(C)(C)C)sc1C(=O)Nc1cccc(C(=O)NCCF)c1 [Compound 209]
[1]; visual rating, 13 to 15 days
  Sedge, Umbrella plant response rating: 90
[2]; [7]
  Barnyardgrass plant response rating: 30
[2]; [8]
  Plant response rating, Barnyardgrass: 70
[2]; [9]
  Barnyardgrass plant response rating: 80
[2]; [10]
  Barnyardgrass plant response rating: 60
[3]; [7]
  Crabgrass, Large plant response rating: 20
[3]; [8]
  Plant response rating, Crabgrass, Large: 40
[3]; [9]
  Crabgrass, Large plant response rating: 95
[3]; [10]
  Crabgrass, Large plant response rating: 75
[4]; [19]
  Rice plant response rating: 0
[4]; [11]
  Rice plant response rating: 45
[4]; [12]
  Rice plant response rating: 45
[4]; [13]
  Plant response rating, Rice: 65
[5]; [22]
  Blackgrass plant response rating: 0
[5]; [24]
  Blackgrass plant response rating: 20
[6]; [7]
  Pigweed plant response rating: 40
[6]; [8]
  Plant response rating, Pigweed: 50
[6]; [9]
  Pigweed plant response rating: 100
[6]; [10]
  Pigweed plant response rating: 75

## CCn1nc(C(C)(C)C)cc1C(=O)Nc1cccc(C(C)=O)c1 [Compound 122]
[1]; visual rating, 13 to 15 days
  Sedge, Umbrella plant response rating: 80
[2]; [7]
  Barnyardgrass plant response rating: 75
[2]; [8]
  Plant response rating, Barnyardgrass: 85
[2]; [17]
  Barnyardgrass plant response rating: 90
[2]; [9]
  Barnyardgrass plant response rating: 95
[3]; [7]
  Crabgrass, Large plant response rating: 35
[3]; [8]
  Plant response rating, Crabgrass, Large: 65
[3]; [17]
  Crabgrass, Large plant response rating: 70
[3]; [9]
  Crabgrass, Large plant response rating: 95
[4]; [19]
  Rice plant response rating: 0
[4]; [20]
  Rice plant response rating: 10
[4]; [12]
  Rice plant response rating: 10
[4]; [13]
  Plant response rating, Rice: 50
[5]; [22]
  Blackgrass plant response rating: 0
[5]; [24]
  Blackgrass plant response rating: 10
[6]; [7]
  Pigweed plant response rating: 60
[6]; [8]
  Plant response rating, Pigweed: 100
[6]; [9]
  Pigweed plant response rating: 90
[6]; [10]
  Pigweed plant response rating: 85

## CCNC(=O)c1ccc(F)c(NC(=O)c2cc(C(C)(C)C)nn2CC)n1 [Compound 278]
[1]
  Sedge, Umbrella plant response rating: 70
[2]; [7]
  Barnyardgrass plant response rating: 30
[2]; [8]
  Plant response rating, Barnyardgrass: 60
[2]; [9]
  Barnyardgrass plant response rating: 80
[2]; [10]
  Barnyardgrass plant response rating: 50
[3]; [7]
  Crabgrass, Large plant response rating: 10
[3]; [8]
  Plant response rating, Crabgrass, Large: 5
[3]; [9]
  Crabgrass, Large plant response rating: 60
[3]; [10]
  Crabgrass, Large plant response rating: 25
[4]; 62 g ai/ha, scale 0 to 100
  Rice plant response rating: 0
[4]; [11]
  Rice plant response rating: 0
[4]; [12]
  Rice plant response rating: 15
[4]; [13]
  Plant response rating, Rice: 30
[5]; [22]
  Blackgrass plant response rating: 20
[5]; [15]
  Blackgrass plant response rating: 30
[6]; [7]
  Pigweed plant response rating: 60
[6]; [8]
  Plant response rating, Pigweed: 70
[6]; [9]
  Pigweed plant response rating: 95
[6]; [10]
  Pigweed plant response rating: 85

Source: patent US20060069132A1, “Azolecarboxamide herbicides” (priority 2004, published 2006)
